One assay deals with pERK in DLD1 cells. Kind of assay: ERK phosphorylation assay after EGF stimulation. The format is cell-based. The conditions noted are these: Homo sapiens, DLD-1, compound 2 h, 200 ng/ml hEGF 5 minutes, alphascreen pERK, read-out: ERK phosphorylation inhibition IC50. Put shortly:
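DLD1 cells pretreated 2 h with compound, then stimulated 5 minutes with 200 ng/ml hEGF. Lysates assayed for ERK1/2 p-T202/Y204 by AlphaScreen SureFire, read after 2 h at 25-28° C.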
A general note: Alpha assays give light when donor and acceptor beads are brought close together.

Another assay concerns the target T1, hSOS1 and hKRASG12C (Homo sapiens, UniProt Q07889).
T1 sequence (Q07889 564-1049): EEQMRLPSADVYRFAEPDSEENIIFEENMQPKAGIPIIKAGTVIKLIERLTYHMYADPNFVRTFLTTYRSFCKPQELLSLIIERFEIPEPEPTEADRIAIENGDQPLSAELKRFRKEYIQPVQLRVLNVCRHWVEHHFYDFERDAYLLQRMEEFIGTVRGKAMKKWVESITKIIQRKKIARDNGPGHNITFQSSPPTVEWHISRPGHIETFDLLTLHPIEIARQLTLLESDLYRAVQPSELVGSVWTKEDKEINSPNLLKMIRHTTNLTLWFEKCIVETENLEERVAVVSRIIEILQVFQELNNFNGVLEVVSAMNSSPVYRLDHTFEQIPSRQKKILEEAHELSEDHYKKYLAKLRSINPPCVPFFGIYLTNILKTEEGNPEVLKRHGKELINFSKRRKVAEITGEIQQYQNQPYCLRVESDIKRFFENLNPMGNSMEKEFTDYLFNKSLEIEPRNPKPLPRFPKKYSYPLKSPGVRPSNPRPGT
Kind of assay: biochemical.

The target of assay [1] is T2, hSOS1 mediated nucleotide exchange on hKRASG12C (Homo sapiens, UniProt Q07889).
T2 sequence (Q07889 564-1049): T1 sequence (Q07889 564-1049)
The assay can be described thus: biochemical.
Method: Example-127: Guanine Nucleotide Exchange Assay (GNEA)
GNEA assay was conducted to evaluate the effects of compounds on the nucleotide exchange on hKRASG12C mediated by hSOS1. Inhibitory effect of compounds on HIS-hSOS1, 564-1049aa mediated GTP loading onto GST-hKRASG12C, 1-169aa both expressed and purified in-house was assessed using HTRF detection technology in biochemical assay. Compounds were pre-incubated with hSOS1 working solution containing 10-50 nM hSOS1 and 200 nM EDA-GTP-DY-647P1 (Custom manufactured, Jena Biosciences) per well of a 384 well plate (Perkin Elmer, Cat #6007290) for 10 min at 20° C. in the assay buffer containing 10 mM HEPES, pH 7.4, 150 mM NaCl, 5 mM MgCl2, 1 mM DTT, 0.05% BSA fraction V and 0.0025% Igepal. Reaction was initiated by adding working solution of hKRASG12C containing 25-125 nM hKRASG12C and MAb Anti-GST-Tb (#61GSTTLA, Cisbio BioAssays) in assay buffer. Total assay volume was 15 μL. Reaction was continued for 30-60 min at 20° C. HTRF signal was recorded in PHERAStar microplate reader. Ratio of signal obtained at 665 nm and 620 nm was used to compute the percent inhibition of compound as follows.
Where, Positive control=hSOS1+EDA-GTP-DY-647P1+hKRASG12C+MAb Anti-GST-Tb Negative control=EDA-GTP-DY-647P1+hKRASG12C+MAb Anti-GST-Tb

As a reminder, the IC50 is the concentration at which inhibition is half-maximal.

Method for hSOS1 and hKRASG12C: Interaction assay was conducted to evaluate the ability of the compounds to disrupt the protein-protein interactions between hSOS1 and hKRASG12C. Inhibitory effect of compounds on GST-hSOS1, 564-1049aa expressed and purified in-house and HIS-hKRASG12C (R06-32DH, SignalChem) interaction was assessed using HTRF detection technology in biochemical assay. Compounds were pre-incubated with 10-50 nM working solution of hSOS1 per well of a 384 well plate (Perkin Elmer, Cat #6007290) for 10 min at 20° C. in the assay buffer containing 5 mM HEPES, pH 7.4, 150 mM NaCl, 10 mM EDTA, 1 mM DTT, 0.05% BSA fraction V and 0.0025% Igepal. Reaction was initiated by adding 100-300 nM working solution of hKRASG12C in assay buffer. Total assay volume was 15 μL. Reaction was continued for 30-60 min at 20° C. Then detection solution containing MAb Anti-GST-d2 (#61GSTDLA, Cisbio BioAssays) and MAb Anti-HIS-Tb (#61HISTLA, Cisbio BioAssays), all prepared in HTRF detection buffer (#61DB10RDF, Cisbio BioAssays) was added and further incubated for 30-60 min at 20° C. HTRF signal was recorded in PHERAStar microplate reader. Ratio of signal obtained at 665 nm and 620 nm was used to compute the percent inhibition of compound utilizing the following formula:
Positive control=hSOS1+hKRASG12C+MAb Anti-GST-d2+Mab Anti-HIS-Tb Negative control=hKRASG12C+MAb Anti-GST-d2+MAb Anti-HIS-Tb

Turning to `Cc1nc(N[C@H](C)c2cccc(C(F)(F)C(C)(C)O)c2F)c2cc(N3CCOCC3)c3c(c2n1)CCC3` [Compound 59, (R)-1,1-difluoro-1-(2-fluoro-3-(1-((2-methyl-6-morpholino-8,9-dihydro-7H-cyclopenta[h]quinazolin-4-yl)amino)ethyl)phenyl)-2-methylpropan-2-ol], the IC50 with pERK in DLD1 cells is 1 to 200 nM; against hSOS1 and hKRASG12C, 1 to 10 nM; in assay [1], 1 to 30 nM.

On to `Cc1nc(N[C@H](C)c2cc(N)cc(C(F)(F)F)c2)c2cc(N3CCOCC3=O)c3c(c2n1)CCC3` [Compound 83, (R)-4-(4-((1-(3-amino-5-(trifluoromethyl)phenyl)ethyl)amino)-2-methyl-8,9-dihydro-7H-cyclopenta[h]quinazolin-6-yl)morpholin-3-one], for which the IC50 with pERK in DLD1 cells lay in the range of 1 to 200 nM; against hSOS1 and hKRASG12C, 11 to 20 nM; in assay [1] it was 71 to 130 nM.

On to `Cc1nc(N[C@H](C)c2cccc(C(F)(F)CO)c2F)c2cc(N3CC4(COC4)C3)c3c(c2n1)CCC3` [Compound 23, (R)-2,2-difluoro-2-(2-fluoro-3-(1-((2-methyl-6-(2-oxa-6-azaspiro[3.3]heptan-6-yl)-8,9-dihydro-7H-cyclopenta[h]quinazolin-4-yl)amino)ethyl)phenyl)ethan-1-ol], for which the IC50 in the assay on pERK in DLD1 cells was 1 to 200 nM; against hSOS1 and hKRASG12C, 1 to 10 nM; in assay [1], 1 to 30 nM.

Regarding `Cc1nc(N[C@H](C)c2cccc(C(F)(F)C(C)(C)O)c2F)c2cc(C3(O)CCOCC3)c3c(c2n1)CCC3` [Compound 119, (R)-4-(4-((1-(3-(1,1-difluoro-2-hydroxy-2-methylpropyl)-2-fluorophenyl)ethyl)amino)-2-methyl-8,9-dihydro-7H-cyclopenta[h]quinazolin-6-yl)tetrahydro-2H-pyran-4-ol], the concentration for half-maximal inhibition (IC50) fell in the range of 1 to 200 nM with pERK in DLD1 cells; 11 to 20 nM at hSOS1 and hKRASG12C; 31 to 70 nM in assay [1].

In the case of `Cc1nc(N[C@H](C)c2cccc(C(F)(F)C(C)(C)O)c2F)c2cc(N3CCC(O)CC3)c3c(c2n1)CCC3` [Compound 65, (R)-1-(4-((1-(3-(1,1-difluoro-2-hydroxy-2-methylpropyl)-2-fluorophenyl)ethyl)amino)-2-methyl-8,9-dihydro-7H-cyclopenta[h]quinazolin-6-yl)piperidin-4-ol], the IC50 was in the range of 1 to 200 nM with pERK in DLD1 cells; 1 to 10 nM against hSOS1 and hKRASG12C; 1 to 30 nM in assay [1].

With `COCC1CCN(c2cc3c(N[C@H](C)c4cc(N)cc(C(F)(F)F)c4)nc(C)nc3c3c2CCC3)CC1` [Compound 54, (R)—N-(1-(3-amino-5-(trifluoromethyl)phenyl)ethyl)-6-(4-(methoxymethyl)piperidin-1-yl)-2-methyl-8,9-dihydro-7H-cyclopenta[h]quinazolin-4-amine], the IC50 in the assay with pERK in DLD1 cells lay within 1 to 200 nM; on hSOS1 and hKRASG12C, 11 to 20 nM; in assay [1], 31 to 70 nM.

For the molecule `COCC(F)(F)c1cccc([C@@H](C)Nc2nc(C)nc3c4c(c(N5CC6(COC6)C5)cc23)CCC4)c1F` [Compound 24, (R)—N-(1-(3-(1,1-difluoro-2-methoxyethyl)-2-fluorophenyl)ethyl)-2-methyl-6-(2-oxa-6-azaspiro[3.3]heptan-6-yl)-8,9-dihydro-7H-cyclopenta[h]quinazolin-4-amine], the IC50 in the assay with pERK in DLD1 cells was 1 to 200 nM; against hSOS1 and hKRASG12C, 1 to 10 nM; in assay [1], 31 to 70 nM.

Consider `Cc1nc(N[C@H](C)c2cc(N)cc(C(F)F)c2)c2cc(N3CCOCC3)c3c(c2n1)CC(C)(C)O3` [Compound 115, (R)—N-(1-(3-amino-5-(difluoromethyl)phenyl)ethyl)-2,8,8-trimethyl-6-morpholino-8,9-dihydrofuro[2,3-h]quinazolin-4-amine], for which the IC50 in the assay with pERK in DLD1 cells lay in the range of 1 to 200 nM; at hSOS1 and hKRASG12C, 1 to 10 nM; in assay [1], 31 to 70 nM.

With `Cc1nc(N[C@H](C)c2cccc(C(F)(F)C(C)(C)O)c2F)c2cc(N3CCC(CO)CC3)c3c(c2n1)CCC3` [Compound 64, (R)-1,1-difluoro-1-(2-fluoro-3-(1-((6-(4-(hydroxymethyl)piperidin-1-yl)-2-methyl-8,9-dihydro-7H-cyclopenta[h]quinazolin-4-yl)amino)ethyl)phenyl)-2-methylpropan-2-ol], the IC50 in the assay with pERK in DLD1 cells fell in the range of 1 to 200 nM; at hSOS1 and hKRASG12C, 1 to 10 nM; in assay [1] it was 1 to 30 nM.

As to `Cc1nc(N[C@H](C)c2cccc(C(F)(F)[C@@H](C)O)c2F)c2cc(N3CC4(COC4)C3)c3c(c2n1)CCC3` (single isomer, unassigned) [Compound 73b], the IC50 with pERK in DLD1 cells was in the range of 1 to 200 nM; on hSOS1 and hKRASG12C, 1 to 10 nM; in assay [1], 1 to 30 nM.

For the molecule `Cc1nc(N[C@H](C)c2cc(N)cc(C(F)(F)F)c2)c2cc(N3CC4(COC4)C3)c3c(c2n1)CC(C)(C)O3` [Compound 114, (R)—N-(1-(3-amino-5-(trifluoromethyl)phenyl)ethyl)-2,8,8-trimethyl-6-(2-oxa-6-azaspiro[3.3]heptan-6-yl)-8,9-dihydrofuro[2,3-h]quinazolin-4-amine], the IC50 in the assay on pERK in DLD1 cells was in the range of 1 to 200 nM; against hSOS1 and hKRASG12C, 1 to 10 nM; in assay [1] it was 31 to 70 nM.

For the molecule `Cc1nc(N[C@H](C)c2cc(N)cc(C(F)(F)F)c2)c2cc(N3CC[C@](C)(O)C3)c3c(c2n1)CCC3` (single isomer, unassigned) [Compound 55b], the IC50 with pERK in DLD1 cells was 1 to 200 nM; on hSOS1 and hKRASG12C, 11 to 20 nM; in assay [1], 71 to 130 nM.

Turning to `Cc1nc(N[C@H](C)c2cccc(C(F)(F)C(C)(C)O)c2F)c2cc(N3CC4(COC4)C3)c3c(c2n1)CCC3` [Compound 10, (R)-1,1-difluoro-1-(2-fluoro-3-(1-((2-methyl-6-(2-oxa-6-azaspiro[3.3]heptan-6-yl)-8,9-dihydro-7H-cyclopenta[h]quinazolin-4-yl)amino)ethyl)phenyl)-2-methylpropan-2-ol], the IC50 fell in the range of 1 to 200 nM with pERK in DLD1 cells; 1 to 10 nM against hSOS1 and hKRASG12C; 1 to 30 nM in assay [1].

Turning to `COCC1(O)CCN(c2cc3c(N[C@H](C)c4cccc(C(F)(F)C(C)O)c4F)nc(C)nc3c3c2CCC3)CC1` (single isomer, unassigned) [Compound 72a], the IC50 in the assay on pERK in DLD1 cells is 1 to 200 nM; against hSOS1 and hKRASG12C, 1 to 10 nM; in assay [1] it was 1 to 30 nM.

As to `Cc1nc(N[C@H](C)c2cc(N)cc(C(F)(F)F)c2)c2cc(N3CCC(O)CC3)c3c(c2n1)CCC3` [Compound 48, (R)-1-(4-((1-(3-amino-5-(trifluoromethyl)phenyl)ethyl)amino)-2-methyl-8,9-dihydro-7H-cyclopenta[h]quinazolin-6-yl)piperidin-4-ol], the IC50 in the assay with pERK in DLD1 cells was 1 to 200 nM; on hSOS1 and hKRASG12C it was 1 to 10 nM; in assay [1] it was 1 to 30 nM.

As for `COCC1(O)CCN(c2cc3c(N[C@H](C)c4cccc(C(F)(F)CCO)c4F)nc(C)nc3c3c2CCC3)CC1` [Compound 71, (R)-1-(4-((1-(3-(1,1-difluoro-3-hydroxypropyl)-2-fluorophenyl)ethyl)amino)-2-methyl-8,9-dihydro-7H-cyclopenta[h]quinazolin-6-yl)-4-(methoxymethyl) piperidin-4-ol], the IC50 in the assay on pERK in DLD1 cells is 1 to 200 nM; at hSOS1 and hKRASG12C, 1 to 10 nM; in assay [1], 1 to 30 nM.

Take `COc1cc2c(N[C@H](C)c3cccc(C(F)(F)CO)c3F)nc(C)nc2c2c1N(C)CCO2` [Compound 121, (R)-2,2-difluoro-2-(2-fluoro-3-(1-((6-methoxy-2,7-dimethyl-8,9-dihydro-7H-[1,4]oxazino[3,2-h]quinazolin-4-yl)amino)ethyl)phenyl)ethan-1-ol]: the IC50 is 1 to 200 nM with pERK in DLD1 cells; 1 to 10 nM at hSOS1 and hKRASG12C; 1 to 30 nM in assay [1].

With `Cc1nc(N[C@H](C)c2cc(N)cc(C(F)(F)F)c2)c2cc(N3CC4(CC(O)C4)C3)c3c(c2n1)CCC3` [Compound 52, (R)-2-(4-((1-(3-amino-5-(trifluoromethyl)phenyl)ethyl)amino)-2-methyl-8,9-dihydro-7H-cyclopenta[h]quinazolin-6-yl)-2-azaspiro[3.3]heptan-6-ol], the IC50 in the assay with pERK in DLD1 cells was 1 to 200 nM; at hSOS1 and hKRASG12C, 1 to 10 nM; in assay [1] it was 1 to 30 nM.

With `Cc1nc(N[C@H](C)c2cc(N)cc(C(F)(F)F)c2)c2cc(N3CCOCC3)c3c(c2n1)CC(C)(C)O3` [Compound 113, (R)—N-(1-(3-amino-5-(trifluoromethyl)phenyl)ethyl)-2,8,8-trimethyl-6-morpholino-8,9-dihydrofuro[2,3-h]quinazolin-4-amine], the IC50 in the assay with pERK in DLD1 cells is 1 to 200 nM; at hSOS1 and hKRASG12C, 1 to 10 nM; in assay [1], 1 to 30 nM.

`COCC1(O)CCN(c2cc3c(N[C@H](C)c4cc(N)cc(C(F)(F)F)c4)nc(C)nc3c3c2CCC3)CC1` [Compound 47, (R)-1-(4-((1-(3-amino-5-(trifluoromethyl)phenyl)ethyl)amino)-2-methyl-8,9-dihydro-7H-cyclopenta[h]quinazolin-6-yl)-4-(methoxymethyl)piperidin-4-ol]: the concentration for half-maximal inhibition (IC50) fell in the range of 1 to 200 nM with pERK in DLD1 cells; 1 to 10 nM against hSOS1 and hKRASG12C; 1 to 30 nM in assay [1].

Source of the values: patent US12435066B2, “Substituted tricyclic compounds” (LUPIN LIMITED, priority 2019, dated 2025).
